Reference: US11426397B2, “Piperidinyl- and piperazinyl-substituted heteroaromatic carboxamides as modulators of GPR6” (TAKEDA PHARMACEUTICAL COMPANY LIMITED, priority 2017, dated 2022)

target: T1, GPR6 receptor expressed in CHO-K1 cells (Homo sapiens, UniProt P46095); assay: In vitro inhibition of cAMP (EC50), cell-based HTRF cAMP assay; conditions: inhibition of constitutive cAMP activity of GPR6 in CHO-K1 cells
T1 construct: expressed in transfected cells
Method in brief: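 Cellular cAMP measured by Lance Ultra HTRF (Eu-cAMP tracer, ULight anti-cAMP), with EC50 fitted by four-parameter logistic. Test compounds sat on cells 45 min, 37 °C, in pH 7.4 Ringer's with 300 μM IBMX and 0.5% BSA; GPR6 in CHO-K1 induced beforehand by doxycycline, 2 μg/mL, 20 h.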

T1 sequence (P46095 whole entry): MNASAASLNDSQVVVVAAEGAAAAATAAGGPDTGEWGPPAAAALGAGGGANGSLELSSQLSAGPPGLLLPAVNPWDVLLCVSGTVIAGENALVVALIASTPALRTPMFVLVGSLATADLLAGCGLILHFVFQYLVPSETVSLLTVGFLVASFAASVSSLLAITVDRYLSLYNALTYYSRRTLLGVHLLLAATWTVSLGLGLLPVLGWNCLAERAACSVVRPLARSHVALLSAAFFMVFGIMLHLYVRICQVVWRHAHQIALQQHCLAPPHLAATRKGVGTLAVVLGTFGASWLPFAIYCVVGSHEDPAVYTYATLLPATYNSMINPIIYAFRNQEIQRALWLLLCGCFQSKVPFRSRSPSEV

Q: `CCn1nc(C(=O)Nc2cc(C#N)ccc2N2CCC(Oc3ccc(F)cc3F)CC2)cc1C` [Example 143, N-(5-cyano-2-(4-(2,4-difluorophenoxy)piperidin-1-yl)phenyl)-1-ethyl-5-methyl-1H-pyrazole-3-carboxamide] was tested. Which “pEC50, in vitro inhibition of cAMP” value did it give?
A: 6.8

Q: How did the “pEC50, in vitro inhibition of cAMP” value turn out when `Cn1c2c(cc(C(=O)Nc3cc(C#N)ccc3N3CCC(Oc4ccc(F)cc4F)CC3)c1=O)CCCC2` [Example 185] was run?
A: 6.4

Q: `COc1ccc(C(C)(C)C)cc1C(=O)Nc1cc(C#N)ccc1N1CCC(Oc2ccc(F)cc2F)CC1` [Example 209, 5-(tert-butyl)-N-(5-cyano-2-(4-(2,4-difluorophenoxy)piperidin-1-yl)phenyl)-2-methoxybenzamide] was tested. Which “pEC50, in vitro inhibition of cAMP” value did it give?
A: 6.1

Q: For `COc1ccncc1C(=O)Nc1ccc(C)nc1N1CCC(Oc2ccc(F)cc2F)CC1` [Example 62, N-(2-(4-(2,4-difluorophenoxy)piperidin-1-yl)-6-methylpyridin-3-yl)-4-methoxynicotinamide], which “pEC50, in vitro inhibition of cAMP” value is on record?
A: 7.3

Q: For `COc1nn(C)cc1C(=O)Nc1cc(C#N)ncc1N1CCN(Cc2cc(F)c(F)c(F)c2)CC1` [Example 267, N-(2-cyano-5-(4-(3,4,5-trifluorobenzyl)piperazin-1-yl)pyridin-4-yl)-3-methoxy-1-methyl-1H-pyrazole-4-carboxamide], which “pEC50, in vitro inhibition of cAMP” value is on record?
A: 6.4

Q: How did the “pEC50, in vitro inhibition of cAMP” value turn out when `N#Cc1cnc(N2CCC(Oc3ccc(F)cc3F)CC2)c(NC(=O)c2ccccn2)c1` [Example 66, N-(5-cyano-2-(4-(2,4-difluorophenoxy)piperidin-1-yl)pyridin-3-yl)picolinamide] was run?
A: 7.3

Q: With `COCCCn1cccc(C(=O)Nc2cc(C#N)ccc2N2CCC(Oc3ccc(F)cc3F)CC2)c1=O` [Example 199] as the compound, how does the “pEC50, in vitro inhibition of cAMP” value read?
A: 5.9

Q: How did the “pEC50, in vitro inhibition of cAMP” value turn out when `COc1ccc(F)c(CN2CCN(c3ccc(C#N)cc3NC(=O)c3cccnc3OC)CC2)c1` [Example 242, N-(5-cyano-2-(4-(2-fluoro-5-methoxybenzyl)piperazin-1-yl)phenyl)-2-methoxynicotinamide] was run?
A: 6.8

Q: With `COc1ccncc1C(=O)Nc1cnc(C)cc1N1CCC(Oc2ccc(F)cc2F)CC1` [Example 263] as the compound, how does the “pEC50, in vitro inhibition of cAMP” value read?
A: 7.1

Q: `COc1ncccc1C(=O)Nc1cnc(C)cc1N1CCC(Oc2ccc(C#N)cc2F)CC1` [Example 40, N-(4-(4-(4-cyano-2-fluorophenoxy)piperidin-1-yl)-6-methylpyridin-3-yl)-2-methoxynicotinamide] was tested. Which “pEC50, in vitro inhibition of cAMP” value did it give?
A: 6.2

Q: With `COc1ccc(F)cc1CN1CCN(c2ncc(C#N)cc2NC(=O)c2cn(C)nc2OC)CC1` [Example 161, N-(5-cyano-2-(4-(5-fluoro-2-methoxybenzyl)piperazin-1-yl)pyridin-3-yl)-3-methoxy-1-methyl-1H-pyrazole-4-carboxamide] as the compound, how does the “pEC50, in vitro inhibition of cAMP” value read?
A: 6.5

Q: For `COc1cccc(OC)c1C(=O)Nc1cc(C#N)ccc1N1CCC(Oc2ccc(F)cc2F)CC1` [Example 238, N-(5-cyano-2-(4-(2,4-difluorophenoxy)piperidin-1-yl)phenyl)-2,6-dimethoxybenzamide], which “pEC50, in vitro inhibition of cAMP” value is on record?
A: 5.0

Q: With `COc1c(C)ccc(C)c1C(=O)Nc1cc(C#N)ccc1N1CCC(Oc2ccc(F)cc2F)CC1` [Example 214, N-(5-cyano-2-(4-(2,4-difluorophenoxy)piperidin-1-yl)phenyl)-2-methoxy-3,6-dimethylbenzamide] as the compound, how does the “pEC50, in vitro inhibition of cAMP” value read?
A: 5.5

Q: With `Cc1nc(C(=O)Nc2cc(C#N)ccc2N2CCC(Oc3ccc(F)cc3F)CC2)ccc1F` [Example 137, N-(5-cyano-2-(4-(2,4-difluorophenoxy)piperidin-1-yl)phenyl)-5-fluoro-6-methylpicolinamide] as the compound, how does the “pEC50, in vitro inhibition of cAMP” value read?
A: 7.1

Q: `CS(=O)(=O)c1ccc(N2CCC(Oc3ccc(F)cc3F)CC2)c(NC(=O)c2cnn3c2OCCCC3)c1` [Example 38, N-(2-(4-(2,4-difluorophenoxy)piperidin-1-yl)-5-(methylsulfonyl)phenyl)-5,6,7,8-tetrahydropyrazolo[5,1-b][1,3]oxazepine-3-carboxamide] was tested. Which “pEC50, in vitro inhibition of cAMP” value did it give?
A: 6.8

Q: `COc1ncc(Cl)cc1C(=O)Nc1cc(C#N)ccc1N1CCC(Oc2ccc(F)cc2F)CC1` [Example 193, 5-chloro-N-(5-cyano-2-(4-(2,4-difluorophenoxy)piperidin-1-yl)phenyl)-2-methoxynicotinamide] was tested. Which “pEC50, in vitro inhibition of cAMP” value did it give?
A: 5.9

Q: For `Cc1nnc(C(=O)Nc2cc(C#N)ccc2N2CCC(Oc3ccc(F)cc3F)CC2)o1` [Example 132, N-(5-cyano-2-(4-(2,4-difluorophenoxy)piperidin-1-yl)phenyl)-5-methyl-1,3,4-oxadiazole-2-carboxamide], which “pEC50, in vitro inhibition of cAMP” value is on record?
A: 5.6

Q: For `Cc1nc(C(=O)Nc2cc(C#N)ccc2N2CCC(Oc3ccc(F)cc3F)CC2)co1` [Example 43, N-(5-cyano-2-(4-(2,4-difluorophenoxy)piperidin-1-yl)phenyl)-2-methyloxazole-4-carboxamide], which “pEC50, in vitro inhibition of cAMP” value is on record?
A: 6.1

Q: `Cc1ccc(C(=O)Nc2cc(C#N)ccc2N2CCC(Oc3ccc(F)cc3F)CC2)c(=O)n1C` [Example 79, N-(5-cyano-2-(4-(2,4-difluorophenoxy)piperidin-1-yl)phenyl)-1,6-dimethyl-2-oxo-1,2-dihydropyridine-3-carboxamide] was tested. Which “pEC50, in vitro inhibition of cAMP” value did it give?
A: 6.8

Q: Which “pEC50, in vitro inhibition of cAMP” value does the source give for `Cc1nccnc1C(=O)Nc1cc(C#N)ccc1N1CCC(Oc2ccc(F)cc2F)CC1` [Example 115, N-(5-cyano-2-(4-(2,4-difluorophenoxy)piperidin-1-yl)phenyl)-3-methylpyrazine-2-carboxamide] here?
A: 6.6

Q: Which “pEC50, in vitro inhibition of cAMP” value does the source give for `COc1ncccc1C(=O)Nc1cc(C#N)ccc1N1CCN(Cc2ccccc2C#N)CC1` [Example 245, N-(5-cyano-2-(4-(2-cyanobenzyl)piperazin-1-yl)phenyl)-2-methoxynicotinamide] here?
A: 7.0

Q: How did the “pEC50, in vitro inhibition of cAMP” value turn out when `COc1ccnc(C(=O)Nc2cc(C#N)ccc2N2CCC(Oc3ccc(F)cc3F)CC2)c1` [Example 109, N-(5-cyano-2-(4-(2,4-difluorophenoxy)piperidin-1-yl)phenyl)-4-methoxypicolinamide] was run?
A: 6.7

Q: For `N#Cc1ccc(N2CCC(Oc3ccc(F)cc3F)CC2)c(NC(=O)c2ncc(F)cc2F)c1` [Example 49, N-(5-cyano-2-(4-(2,4-difluorophenoxy)piperidin-1-yl)phenyl)-3,5-difluoropicolinamide], which “pEC50, in vitro inhibition of cAMP” value is on record?
A: 6.5

Q: For `COc1nn(C)cc1C(=O)Nc1cc(C#N)cnc1N1CCN(Cc2ccc(Cl)cc2F)CC1` [Example 172, N-(2-(4-(4-chloro-2-fluorobenzyl)piperazin-1-yl)-5-cyanopyridin-3-yl)-3-methoxy-1-methyl-1H-pyrazole-4-carboxamide], which “pEC50, in vitro inhibition of cAMP” value is on record?
A: 7.1

Q: How did the “pEC50, in vitro inhibition of cAMP” value turn out when `COc1c(C(=O)Nc2cc(C#N)ccc2N2CCC(Oc3ccc(F)cc3F)CC2)nnn1Cc1ccccc1Cl` [Example 221, 1-(2-chlorobenzyl)-N-(5-cyano-2-(4-(2,4-difluorophenoxy)piperidin-1-yl)phenyl)-5-methoxy-1H-1,2,3-triazole-4-carboxamide] was run?
A: <4.5

Q: With `COc1nn(C)cc1C(=O)Nc1cc(C)cnc1N1CCC(Oc2ccc(F)cc2F)CC1` [Example 36, N-(2-(4-(2,4-difluorophenoxy)piperidin-1-yl)-5-methylpyridin-3-yl)-3-methoxy-1-methyl-1H-pyrazole-4-carboxamide] as the compound, how does the “pEC50, in vitro inhibition of cAMP” value read?
A: 7.0

Q: For `COc1c(C(=O)Nc2ccc(C#N)nc2N2CCC(Oc3ccc(F)cc3F)CC2)cnn1C` [Example 256, N-(6-cyano-2-(4-(2,4-difluorophenoxy)piperidin-1-yl)pyridin-3-yl)-5-methoxy-1-methyl-H-pyrazole-4-carboxamide], which “pEC50, in vitro inhibition of cAMP” value is on record?
A: 6.7

Q: For `Cn1cccc(C(=O)Nc2cc(C#N)ccc2N2CCC(Oc3ccc(F)c(F)c3)CC2)c1=O` [Example 16], which “pEC50, in vitro inhibition of cAMP” value is on record?
A: 6.6

Q: `Cc1cncc(C(=O)Nc2cc(C#N)ccc2N2CCC(Oc3ccc(F)cc3F)CC2)n1` [Example 130, N-(5-cyano-2-(4-(2,4-difluorophenoxy)piperidin-1-yl)phenyl)-6-methylpyrazine-2-carboxamide] was tested. Which “pEC50, in vitro inhibition of cAMP” value did it give?
A: 7.1

Q: With `Cc1cc(C)n(C)c(=O)c1C(=O)Nc1cc(C#N)ccc1N1CCC(Oc2ccc(F)cc2F)CC1` [Example 176, N-(5-cyano-2-(4-(2,4-difluorophenoxy)piperidin-1-yl)phenyl)-1,4,6-trimethyl-2-oxo-1,2-dihydropyridine-3-carboxamide] as the compound, how does the “pEC50, in vitro inhibition of cAMP” value read?
A: 6.5

Q: `COc1ncccc1C(=O)Nc1cc(S(C)(=O)=O)ccc1N1CCN(C(=O)c2ccc(F)cc2C)CC1` [Example 95, N-(2-(4-(4-fluoro-2-methylbenzoyl)piperazin-1-yl)-5-(methylsulfonyl)phenyl)-2-methoxynicotinamide] was tested. Which “pEC50, in vitro inhibition of cAMP” value did it give?
A: 6.2

Q: How did the “pEC50, in vitro inhibition of cAMP” value turn out when `Cc1onc(C(=O)Nc2cc(C#N)ccc2N2CCC(Oc3ccc(F)cc3F)CC2)c1C` [Example 131, N-(5-cyano-2-(4-(2,4-difluorophenoxy)piperidin-1-yl)phenyl)-4,5-dimethylisoxazole-3-carboxamide] was run?
A: 7.0

Q: Which “pEC50, in vitro inhibition of cAMP” value does the source give for `N#Cc1ccc(N2CCC(Oc3ccc(F)cc3F)CC2)c(NC(=O)c2cscn2)c1` [Example 112, N-(5-cyano-2-(4-(2,4-difluorophenoxy)piperidin-1-yl)phenyl)thiazole-4-carboxamide] here?
A: 6.4

Q: With `Cn1cccc(C(=O)Nc2cc(C#N)ccc2N2CCC(C(=O)c3cc(F)ccc3F)CC2)c1=O` [Example 82, N-(5-cyano-2-(4-(2,5-difluorobenzoyl)piperidin-1-yl)phenyl)-1-methyl-2-oxo-1,2-dihydropyridine-3-carboxamide] as the compound, how does the “pEC50, in vitro inhibition of cAMP” value read?
A: 7.0
